# In patent publication US20250115628A1, “FLUORINATED FLUOROPHORES” (HOWARD HUGHES MEDICAL INSTITUTE, priority 2023, published 2025):
# Like-named read-outs stand apart in the source and are kept apart here.
# Key:
# [1] = rhodamine derivatives; 10 mM HEPES, pH 7.3; data from the inventors' published work; cited from earlier work
# [2] = rhodamine derivatives; 10 mM HEPES, pH 7.3; data from the inventors' published work; cited from earlier work; remark: listed apart in the source
# [3] = General UV-vis and fluorescence spectroscopy; format: physicochemical
# Description: Spectroscopy was performed using 1^−cm path length, 3.5^−mL quartz cuvettes or 1^−cm path length, 1.4^−mL semi-micro quartz cuvettes from Starna Cells. All measurements were taken at ambient temperature (22±2° C.). Absorption spectra were recorded on a Cary Model 100 spectrometer (Agilent), and fluorescence spectra were recorded on a Cary Eclipse fluorometer (Varian). The spectra, maximum absorption wavelength (labs), extinction coefficient at λabs (8), and maximum emission wavelength (em) were measured in 10 mM HEPES, pH 7.3 buffer (rhodamines and Malachite Green derivative 49) or 0.1 M NaOH (fluoresceins); the reported values for e are averages (n=3). Normalized spectra are shown for clarity.
# [4] = Quantum yield determination; format: physicochemical
# Description: All reported absolute fluorescence quantum yield values (Φf) were measured using a Quantaurus-QY spectrometer (model C11374, Hamamatsu). This instrument uses an integrating sphere to determine photons absorbed and emitted by a sample. Measurements were carried out using dilute samples (A<0.1), and self-absorption corrections were performed using the instrument software.^81
# [5] = pKa determination (absorbance vs. pH); details: for ηH: Hill coefficient from pH titration data; for pKa: aqueous buffer solutions
# Description: For pH 2.0-4.0, the McIlvaine citrate/phosphate buffer system was used. For other pH ranges dye absorbance was measured in buffers containing 150 mM NaCl and 10 mM buffer using the following systems: citrate (pH 4.0-6.0), phosphate (pH 5.8-8.0); tris (pH 7.8-9.0); carbonate (pH 9.2-10.0). Buffer solutions containing 5 M of each fluorophore were prepared (36 samples in duplicate from pH 4.0-10.0 for 51, 53, and 60; 48 samples in duplicate from pH 2.0-10.0 for 76 and 77). Absorbance values were recorded on a Cary Model 100 spectrometer and plotted using GraphPad Prism software. The points were fitted to a sigmoidal dose response curve with a variable slope to determine the Hill coefficient (ηH).
# [6] = rhodamine derivatives; 1:1 dioxane:H2O; data from the inventors' published work; cited from earlier work
# [7] = Determination of KL-Z (lactone-zwitterion equilibrium constant); format: physicochemical; set-up: key: KL-Z = (εdw/εmax)/(1−εdw/εmax); εdw measured in 1:1 dioxane/water; details: 1:1 dioxane:H2O
# Description: KL-Z was calculated using the following equation:^16, 18 KL-Z=(εdw/εmax)/(1−εdw/εmax). εdw is the extinction coefficient of the dyes in a 1:1 (v/v) dioxane/water solvent mixture; this dioxane/water mixture was chosen to give the maximum spread of KL-Z values across all classes of rhodamines.^18 εmax refers to the maximal extinction coefficients measured in different solvent mixtures empirically determined depending on dye type: 0.1% v/v trifluoroacetic acid in ethanol for 18, 20, 29, 34, 36, 70-72, 81-83, 93-95, 99-102, and 104; 0.1% v/v trifluoroacetic acid in 2,2,2^−trifluoroethanol for all other rhodamine variants. A accurate determination of low KL-Z values is complicated by the relatively poor sensitivity of absorbance measurements.
# [8] = fluorescein derivatives, 0.1 N NaOH
# [9] = quinolinyl rhodamines, 10 mM HEPES, pH 7.3
# [10] = rhodamine derivatives, 10 mM HEPES, pH 7.3
Molecule,Φf [1],ε [2],λabs [2] [nm],λem [2] [nm],"ε [3, 8]","λabs [3, 8] [nm]","λem [3, 8] [nm]","Φf [4, 8]",ηH [5],KL-Z [6],further results
"C[Si]1(C)c2cc(N3CCC3)ccc2C2(OC(=O)c3ccccc32)c2ccc(N3CCC3)cc21 [compound 1, JF646]",0.54,"5,600 M^−1cm^−1",646,664,–,–,–,–,–,–,–
"CC1(C)C2=CC(=O)C=CC2=C(c2c(F)c(F)c(F)c(F)c2C(=O)O)c2ccc(O)cc21 [compound 51, 4,5,6,7^−Tetrafluoro-carbofluorescein]",–,–,–,–,"96,700 M^−1cm^−1",564,585,0.54,1.02,–,pKa [5]: 6.86
"CC1(C)C2=CC(=O)C(F)=CC2=C(c2c(F)c(F)c(F)c(F)c2C(=O)O)c2cc(F)c(O)cc21 [compound 53, 2′,4,5,6,7,7′-Hexafluorocarbofluorescein]",–,–,–,–,"91,100 M^−1cm^−1",576,599,0.29,1.00,–,pKa [5]: 5.47
"C[Si]1(C)C2=CC(=O)C=CC2=C(c2c(F)c(F)c(F)c(F)c2C(=O)O)c2ccc(O)cc21 [compound 55, 4,5,6,7^−Tetrafluoro-Si-fluorescein]",–,–,–,–,"84,100 M^−1cm^−1",598,614,0.50,1.23,–,pKa [5]: 7.08
"O=C1OC2(c3ccc(O)cc3Oc3cc(O)ccc32)c2c(F)c(F)c(F)c(F)c21 [compound 60, 4,5,6,7^−tetrafluorofluorescein, reference compound]",–,–,–,–,"85,600 M^−1cm^−1",508,527,0.85,0.92,–,–
"O=C1OC2(c3ccc(O)cc3Oc3cc(O)ccc32)c2ccccc21 [compound 73, reference compound]",–,–,–,–,"90,000 M^−1cm^−1",490,514,0.92,0.97,–,–
"O=C1OC2(c3cc(F)c(O)cc3Oc3cc(O)c(F)cc32)c2ccccc21 [compound 76, reference compound]",–,–,–,–,"82,400 M^−1cm^−1",490,514,0.97,0.98,–,–
"O=C1OC2(c3cc(F)c(O)cc3Oc3cc(O)c(F)cc32)c2c(F)c(F)c(F)c(F)c21 [compound 77, reference compound]",–,–,–,–,"81,200 M^−1cm^−1",508,527,0.18,1.00,–,–
N=c1ccc2c(-c3ccccc3C(=O)O)c3ccc(N)cc3oc-2c1 [compound 81],0.88,"75,000 M^−1cm^−1",487,520,–,–,–,–,–,2.53,–
CC1(C)C2=CC(=N)C=CC2=C(c2ccccc2C(=O)O)c2ccc(N)cc21 [compound 82],0.64,"65,000 M^−1cm^−1",552,577,–,–,–,–,–,0.0127,–
C[Si]1(C)C2=CC(=N)C=CC2=C(c2ccccc2C(=O)O)c2ccc(N)cc21 [compound 83],0.53,"2,200 M^−1cm^−1",587,609,–,–,–,–,–,–,–
"CC1(C)c2cc(N3CCC3)ccc2C2(OC(=O)c3ccccc32)c2ccc(N3CCC3)cc21 [compound 86, JF608]",0.67,"99,000 M^−1cm^−1",608,631,–,–,–,–,–,0.0911,–
[2H]C1([2H])N(c2ccc3c(-c4ccccc4C(=O)[O-])c4ccc(=[N+]5C([2H])([2H])C([2H])([2H])C([2H])([2H])C5([2H])[2H])cc-4oc3c2)C([2H])([2H])C([2H])([2H])C1([2H])[2H] [compound 87],0.80,–,554,576,–,–,–,–,–,4.96,–
[2H]C1([2H])N(c2ccc3c(c2)C(C)(C)C2=CC(=[N+]4C([2H])([2H])C([2H])([2H])C([2H])([2H])C4([2H])[2H])C=CC2=C3c2ccccc2C(=O)[O-])C([2H])([2H])C([2H])([2H])C1([2H])[2H] [compound 88],0.70,"130,000 M^−1cm^−1",612,633,–,–,–,–,–,0.880,–
"[2H]C1([2H])N(c2ccc3c(c2)[Si](C)(C)C2=CC(=[N+]4C([2H])([2H])C([2H])([2H])C([2H])([2H])C4([2H])[2H])C=CC2=C3c2ccccc2C(=O)[O-])C([2H])([2H])C([2H])([2H])C1([2H])[2H] [compound 89, JFX650]",0.53,"17,600 M^−1cm^−1",650,667,–,–,–,–,–,–,–
CN(c1ccccc1)c1ccc2c(-c3ccccc3C(=O)[O-])c3ccc(=[N+](C)c4ccccc4)cc-3oc2c1 [compound 90],–,"16,000 M^−1cm^−1",549,–,–,–,–,–,–,0.296,–
"CC1CC(C)(C)Nc2cc3[o+]c4cc5c(cc4c(-c4ccccc4C(=O)[O-])c3cc21)C(C)CC(C)(C)N5 (centres unmarked) [compound 99, 2^−(2,2,4,8,10,10^−Hexamethyl-1,2,3,4,8,9,10,11-octahydropyrano[3,2^−g:5,6^−g′]diquinolin-13^−ium-6^−yl)benzoate]",–,–,–,–,–,–,–,–,–,–,"ε [3, 9]: 112,000 M^−1cm^−1; λabs [3, 9]: 542 nm; λem [3, 9]: 564 nm; KL-Z ([7]; quinolinyl rhodamines): 6.30; Φf [4, 9]: 0.83"
"CC1CC(C)(C)Nc2cc3c(cc21)C(c1ccccc1C(=O)O)=c1cc2c(cc1[Si]3(C)C)=NC(C)(C)CC2C (centres unmarked) [compound 100, 2^−(2,2,4,8,10,10,13,13-Octamethyl-2,3,4,8,9,10,11,13-octahydrosilino[3,2^−g:5,6^−g]diquinolin-6^−ylium-6(1H)-yl)-benzoate]",–,–,–,–,–,–,–,–,–,–,"ε [3, 9]: 10,400 M^−1cm^−1; λabs [3, 9]: 638 nm; λem [3, 9]: 655 nm; KL-Z ([7]; quinolinyl rhodamines): 0.0220; Φf [4, 9]: 0.34"
"CC1=CC(C)(C)Nc2cc3[o+]c4cc5c(cc4c(-c4ccccc4C(=O)[O-])c3cc21)C(C)=CC(C)(C)N5 [compound 101, 2^−(2,2,4,8,10,10^−Hexamethyl-1,2,10,11^−tetrahydropyrano[3,2-g:5,6^−g′]diquinolin-13^−ium-6^−yl)benzoate]",–,–,–,–,–,–,–,–,–,–,"ε [3, 9]: 94,100 M^−1cm^−1; λabs [3, 9]: 573 nm; λem [3, 9]: 595 nm; KL-Z ([7]; quinolinyl rhodamines): 5.14; Φf [4, 9]: 0.68"
"CC1=CC(C)(C)N(C)c2cc3c(cc21)C(c1ccccc1C(=O)[O-])=c1cc2c(cc1O3)=[N+](C)C(C)(C)C=C2C [compound 103, 2^−(1,2,2,4,8,10,10,11-Octamethyl-1,2,10,11-tetrahydropyrano[3,2^−g:5,6^−g]diquinolin-13^−ium-6^−yl)benzoate]",–,–,–,–,–,–,–,–,–,–,"ε [3, 9]: 95,200 M^−1cm^−1; λabs [3, 9]: 585 nm; λem [3, 9]: 610 nm; KL-Z ([7]; quinolinyl rhodamines): 4.44; Φf [4, 9]: 0.73"
"CN1CCc2cc3c(cc21)[Si](C)(C)c1cc2c(cc1=C3c1c(F)c(F)c(F)c(F)c1C(=O)[O-])CC[N+]=2C [compound 108, SiRF712]",–,–,–,–,–,–,–,–,–,–,"ε [3, 10]: 98,800 M^−1cm^−1; λabs [3, 10]: 712 nm; λem [3, 10]: 735 nm; KL-Z ([7]; rhodamine derivatives): 1.97; Φf [4, 10]: 0.09"
JF669 [compound 2],0.37,"112,000 M^−1cm^−1",669,662,–,–,–,–,–,0.262,–
